These results are taken from PMC10020809, “A Phase Ib/II Study of WNT974 + Encorafenib + Cetuximab in Patients With BRAF ^V600E-Mutant KRAS Wild-Type Metastatic Colorectal Cancer” (The Oncologist, 2023).

Data set [1] in a line: Plasma pharmacokinetics, noncompartmental. In kind it is in vivo, human. Particulars: for t 1/2 / AUC(0-t) / AUC / Cmax / half-life: mean (SD); for AUC(0-t) / AUC / Cmax / half-life / Tmax: human, plasma, oral. The protocol: To assess plasma concentrations of WNT974, its active metabolite LHA333, and encorafenib, serial blood samples were collected on days 1 and 15 of cycle 1, and pre-dose blood samples were collected on days 2, 8, 16, and 22 of cycle 1, and on day 1 of cycles 2, 3, and 4. PK parameters were determined using noncompartmental methods. The PK analysis set included all patients with at least one available valid PK concentration measurement who received at least one dose of study drug.

In data set [2] the test system is patients with BRAF V600E-mutant mCRC with RNF43 mutations or RSPO fusions. Description: Safety: adverse events (CTCAE v4.03), phase Ib. Particulars: human, in vivo. The method, then:
Patients who developed hypercalcemia (any grade) were treated with bisphosphonates per institutional standards.
The primary endpoints of the phase Ib study were the incidence of DLTs and exposure to WNT974 and encorafenib as measured by PK parameters. A DLT was defined as an AE or abnormal laboratory value assessed as unrelated to disease, disease progression, intercurrent illness, or concomitant medications that occurred within the first 28 days of treatment with WNT974 + encorafenib + cetuximab. The secondary endpoints for this study included the objective response rate (ORR; RECIST 1.1), disease control rate (DCR), and frequency and severity of AEs (Common Terminology Criteria for Adverse Events v4.03).
Tumor assessments were performed at baseline (screening) and every 6 weeks after starting study treatment until disease progression, initiation of subsequent antineoplastic therapy, or death, whichever occurred first. End-of-treatment tumor assessment was conducted within 14 days of receiving the last dose or treatment discontinuation. Safety was assessed throughout the study and included physical examinations, vital signs, weight, performance status evaluation, laboratory evaluations, dermatologic evaluations, ophthalmological examinations, bone loss assessments, cardiac assessments, and documentation of all non-serious and serious AEs (SAEs). […]

The next data set relates to CRC preclinical models. On the set-up: method as in PMID 31233627, PMID 28695896, PMID 23847203. The settings on record: in vitro and in vivo; cited from earlier work.
In data set [3] the test system is patients with advanced solid tumors. On the set-up: method as in PMID 33941878. The settings on record: cited from earlier work.
Data set [4] deals with patients with advanced solid tumors; HER2-negative breast cancer or pancreatic cancer. Particulars: in vivo; cited from earlier work.
The mark [5] stands for this setting: 200 mg, All cohorts, encorafenib 200 mg once daily, day 15 of cycle 1, plasma.
Setting [6] is: COMBO5, day 15 of cycle 1, plasma.
Where [7] appears, read: COMBO7.5, day 15 of cycle 1, plasma.
The mark [8] stands for this setting: COMBO10, day 15 of cycle 1, plasma.

Marks after values point to notes of the source that are not given here.

`COC(=O)N[C@@H](C)CNc1nccc(-c2cn(C(C)C)nc2-c2cc(Cl)cc(NS(C)(=O)=O)c2F)n1` [Encorafenib, encorafenib]: the “t 1/2” value in data set [1] (All cohorts, encorafenib 200 mg once daily, day 15 of cycle 1, plasma) is recorded as 4.29 (2.42)^b h. Also, the T max in data set [1] (All cohorts, encorafenib 200 mg once daily, day 15 of cycle 1, plasma, median (range)) is 1.95 (0.48-7.17) h. Further, in data set [1] (day 15 of cycle 1), the “Mean AUC and maximum plasma drug concentration across treatment combinations” value is “generally comparable across all treatment combinations”. In addition, in data set [1] (200 mg, All cohorts (N = 17), encorafenib 200 mg once daily, day 15 of cycle 1, plasma), the AUC(0-t) was 13700 ng·h/mL. Further, in data set [1] (setting [5]), the AUC is 13800 ng·h/mL, the peak level (Cmax) was 2840 ng/mL and the half-life was 4.3 h. Besides, the time of peak concentration (Tmax) in data set [1] (200 mg, All cohorts, encorafenib 200 mg once daily, day 15 of cycle 1, plasma, median (range)) was roughly 2 h.
In the case of `Cc1cc(-c2ncc(CC(=O)Nc3ccc(-c4cnccn4)cn3)cc2C)ccn1` [WNT974], in data set [2], the “Reported serious AEs of bone fracture” value was 6. In addition, the Anti-tumor activity entry with CRC preclinical models is “demonstrated anti-tumor activity”. In data set [3] (across all doses), the “AE frequency: decreased appetite” value was 45.7%, the “AE frequency: dysgeusia” value was 50%, the “AE frequency: fatigue” value is recorded as 31.9% and the “AE frequency: nausea” value is on record as 33.0%. In addition, the “AE frequency: vomiting” value in data set [3] (across all doses) was 30.9%. Moreover, in data set [3], the “Bone-related toxicities considered related to the study treatment” value is given as 5, the “Number of bone-related toxicities” value is 7 and the “Patients who experienced bone-related toxicities” value is 6 patients. Moreover, in data set [1] (setting [6]), the “t 1/2” value is 4.74 (2.17) h, the AUC was 227 ng·h/mL, the concentration peaked (Cmax) at 51 ng/mL and the half-life is 4.7 h. In addition, in data set [1] (setting [7]), the “t 1/2” value is listed as 5.37 (0.697) h, the AUC is 384 ng·h/mL, the peak level (Cmax) was 93.4 ng/mL and the half-life is 5.4 h. In addition, the “Dose dependence of mean AUC” value in data set [1] (WNT974 5, 7.5, 10 mg, day 15 of cycle 1) is recorded as “increased in a dose-proportional manner”. For the same molecule, the AUC(0-t) in data set [1] (COMBO5 (5 mg WNT974 once daily + encorafenib + cetuximab), day 15 of cycle 1, plasma) was found to be 220 ng·h/mL. Besides, the time of peak concentration (Tmax) in data set [1] (COMBO5, day 15 of cycle 1, plasma, median (range)) was determined as 1 h. Besides, the area under the curve AUC(0-t) in data set [1] (COMBO7.5 (7.5 mg WNT974 once daily + encorafenib + cetuximab), day 15 of cycle 1, plasma) is 384 ng·h/mL. Further, the time to peak (Tmax) in data set [1] (COMBO7.5, day 15 of cycle 1, plasma, median (range)) was determined as 1.02 h. The AUC(0-t) in data set [1] (COMBO10 (10 mg WNT974 once daily + encorafenib + cetuximab), day 15 of cycle 1, plasma) came out at 460 ng·h/mL. In data set [1] (setting [8]), this molecule showed an AUC of 542 ng·h/mL, a peak concentration (Cmax) of 42.9 ng/mL and a half-life of 11 h. Also, in data set [1] (COMBO10, day 15 of cycle 1, plasma, median (range)), the Tmax is 4 h.

B1: vantictumab: an anti-Frizzled antibody, given with chemotherapy (antibody, chains of the INN, looked up, V domains shown)
VH: EVQLVESGGGLVQPGGSLRLSCAASGFTFSHYTLSWVRQAPGKGLEWVSVISGDGSYTYYADSVKGRFTISSDNSKNTLYLQMNSLRAEDTAVYYCARNFIKYVFANWGQGTLVTVSS
VL: DIELTQPPSVSVAPGQTARISCSGDNIGSFYVHWYQQKPGQAPVLVIYDKSNRPSGIPERFSGSNSGNTATLTISGTQAEDEADYYCQSYANTLSLVFGGGTKLTVL
On to B1, for which the “Tolerability / bone safety in phase I trials” value in data set [4] is “closed early due to high rates of bone fracture”.
